Assay results from paper PMC3523469 (Investigational New Drugs, 2012).
Like-named read-outs stand apart in the source and are kept apart here.

Type: in vivo, Japanese patients
[1] = across all dose levels, 13 patients

## COc1cc2ncnc(Nc3ccc(F)c(Cl)c3)c2cc1NC(=O)/C=C/CN1CCCCC1 [dacomitinib, Dacomitinib]
30 mg QD (n = 3), G3
  Dry skin, number of patients with treatment-related AE: 0
  ECG QT prolonged, number of patients with treatment-related AE: 0
  Edema, number of patients with treatment-related AE: 0
  Fatigue, number of patients with treatment-related AE: 0
  Hematuria, number of patients with treatment-related AE: 0
  Hypertrichosis, number of patients with treatment-related AE: 0
  Leukopenia, number of patients with treatment-related AE: 0
  Nausea, number of patients with treatment-related AE: 0
  Palmar–plantar erythrodysesthesia, number of patients with treatment-related AE: 0
  Paronychia, number of patients with treatment-related AE: 0
  Proteinuria, number of patients with treatment-related AE: 0
  Rash, number of patients with treatment-related AE: 0
  Skin fissures, number of patients with treatment-related AE: 0
  Stomatitis, number of patients with treatment-related AE: 0
  Weight decreased, number of patients with treatment-related AE: 0
45 mg QD (n = 7), All
  Alanine aminotransferase increased, number of patients with treatment-related AE: 2
  Aspartate aminotransferase increased, number of patients with treatment-related AE: 2
  Blood bilirubin increased, number of patients with treatment-related AE: 2
  Cheilitis, number of patients with treatment-related AE: 2
  Conjunctivitis, number of patients with treatment-related AE: 3
  Decreased appetite, number of patients with treatment-related AE: 2
  Diarrhea, number of patients with treatment-related AE: 7
  Dry skin, number of patients with treatment-related AE: 5
  ECG QT prolonged, number of patients with treatment-related AE: 0
  Edema, number of patients with treatment-related AE: 2
  Fatigue, number of patients with treatment-related AE: 5
  Hematuria, number of patients with treatment-related AE: 2
  Hypertrichosis, number of patients with treatment-related AE: 2
  Leukopenia, number of patients with treatment-related AE: 3
  Nausea, number of patients with treatment-related AE: 2
  Palmar–plantar erythrodysesthesia, number of patients with treatment-related AE: 2
  Paronychia, number of patients with treatment-related AE: 6
  Proteinuria, number of patients with treatment-related AE: 3
  Rash, number of patients with treatment-related AE: 7
  Skin fissures, number of patients with treatment-related AE: 2
  Stomatitis, number of patients with treatment-related AE: 5
  Weight decreased, number of patients with treatment-related AE: 2
45 mg QD (n = 7), G1
  Alanine aminotransferase increased, number of patients with treatment-related AE: 0
  Aspartate aminotransferase increased, number of patients with treatment-related AE: 0
  Blood bilirubin increased, number of patients with treatment-related AE: 0
  Cheilitis, number of patients with treatment-related AE: 2
  Conjunctivitis, number of patients with treatment-related AE: 3
  Decreased appetite, number of patients with treatment-related AE: 0
  Diarrhea, number of patients with treatment-related AE: 4
  Dry skin, number of patients with treatment-related AE: 5
  ECG QT prolonged, number of patients with treatment-related AE: 0
  Edema, number of patients with treatment-related AE: 1
  Fatigue, number of patients with treatment-related AE: 1
  Hematuria, number of patients with treatment-related AE: 2
  Hypertrichosis, number of patients with treatment-related AE: 2
  Leukopenia, number of patients with treatment-related AE: 1
  Nausea, number of patients with treatment-related AE: 1
  Palmar–plantar erythrodysesthesia, number of patients with treatment-related AE: 0
  Paronychia, number of patients with treatment-related AE: 1
  Proteinuria, number of patients with treatment-related AE: 2
  Rash, number of patients with treatment-related AE: 1
  Skin fissures, number of patients with treatment-related AE: 1
  Stomatitis, number of patients with treatment-related AE: 4
  Weight decreased, number of patients with treatment-related AE: 0
45 mg QD (n = 7), G2
  Alanine aminotransferase increased, number of patients with treatment-related AE: 1
  Aspartate aminotransferase increased, number of patients with treatment-related AE: 1
  Blood bilirubin increased, number of patients with treatment-related AE: 1
  Cheilitis, number of patients with treatment-related AE: 0
  Conjunctivitis, number of patients with treatment-related AE: 0
  Decreased appetite, number of patients with treatment-related AE: 1
  Diarrhea, number of patients with treatment-related AE: 3
  Dry skin, number of patients with treatment-related AE: 0
  ECG QT prolonged, number of patients with treatment-related AE: 0
  Edema, number of patients with treatment-related AE: 1
  Fatigue, number of patients with treatment-related AE: 4
  Hematuria, number of patients with treatment-related AE: 0
  Hypertrichosis, number of patients with treatment-related AE: 0
  Leukopenia, number of patients with treatment-related AE: 2
  Nausea, number of patients with treatment-related AE: 1
  Palmar–plantar erythrodysesthesia, number of patients with treatment-related AE: 2
  Paronychia, number of patients with treatment-related AE: 5
  Proteinuria, number of patients with treatment-related AE: 1
  Rash, number of patients with treatment-related AE: 4
  Skin fissures, number of patients with treatment-related AE: 1
  Stomatitis, number of patients with treatment-related AE: 1
  Weight decreased, number of patients with treatment-related AE: 2
45 mg QD (n = 7), G3
  Alanine aminotransferase increased, number of patients with treatment-related AE: 1
  Aspartate aminotransferase increased, number of patients with treatment-related AE: 1
  Blood bilirubin increased, number of patients with treatment-related AE: 1
  Cheilitis, number of patients with treatment-related AE: 0
  Conjunctivitis, number of patients with treatment-related AE: 0
  Decreased appetite, number of patients with treatment-related AE: 1
  Diarrhea, number of patients with treatment-related AE: 0
  Dry skin, number of patients with treatment-related AE: 0
  ECG QT prolonged, number of patients with treatment-related AE: 0
  Edema, number of patients with treatment-related AE: 0
  Fatigue, number of patients with treatment-related AE: 0
  Hematuria, number of patients with treatment-related AE: 0
  Hypertrichosis, number of patients with treatment-related AE: 0
  Leukopenia, number of patients with treatment-related AE: 0
  Nausea, number of patients with treatment-related AE: 0
  Palmar–plantar erythrodysesthesia, number of patients with treatment-related AE: 0
  Paronychia, number of patients with treatment-related AE: 0
  Proteinuria, number of patients with treatment-related AE: 0
  Rash, number of patients with treatment-related AE: 2
  Skin fissures, number of patients with treatment-related AE: 0
  Stomatitis, number of patients with treatment-related AE: 0
  Weight decreased, number of patients with treatment-related AE: 0
45 mg dosing cohort
  device-related infection, treatment-related grade 3 AE, number: 1
  treatment-related grade 3 AEs, number: seven
15, 30, 45 mg QD, single dose to day 21 of cycle 1, 12 patients evaluated
  Dose-limiting toxicity (DLT): no DLTs observed at any dose
Japanese patients with advanced solid tumors
  clinically recommended phase II dose (RP2D): 45 mg QD
Total (N = 13)
  Alanine aminotransferase increased, % of patients with treatment-related AE: 15%
  Alanine aminotransferase increased, number of patients with treatment-related AE: 2
  Aspartate aminotransferase increased, % of patients with treatment-related AE: 15%
  Aspartate aminotransferase increased, number of patients with treatment-related AE: 2
  Blood bilirubin increased, % of patients with treatment-related AE: 15%
  Blood bilirubin increased, number of patients with treatment-related AE: 2
  Cheilitis, % of patients with treatment-related AE: 38%
  Cheilitis, number of patients with treatment-related AE: 5
  Conjunctivitis, % of patients with treatment-related AE: 31%
  Conjunctivitis, number of patients with treatment-related AE: 4
  Decreased appetite, % of patients with treatment-related AE: 23%
  Decreased appetite, number of patients with treatment-related AE: 3
  Diarrhea, % of patients with treatment-related AE: 92%
  Diarrhea, number of patients with treatment-related AE: 12
  Dry skin, % of patients with treatment-related AE: 61.5%
  Dry skin, number of patients with treatment-related AE: 8
  ECG QT prolonged, % of patients with treatment-related AE: 15%
  ECG QT prolonged, number of patients with treatment-related AE: 2
  Edema, % of patients with treatment-related AE: 15%
  Edema, number of patients with treatment-related AE: 2
  Fatigue, % of patients with treatment-related AE: 46%
  Fatigue, number of patients with treatment-related AE: 6
  Hematuria, % of patients with treatment-related AE: 15%
  Hematuria, number of patients with treatment-related AE: 2
  Hypertrichosis, % of patients with treatment-related AE: 15%
  Hypertrichosis, number of patients with treatment-related AE: 2
  Leukopenia, % of patients with treatment-related AE: 23%
  Leukopenia, number of patients with treatment-related AE: 3
  Nausea, % of patients with treatment-related AE: 23%
  Nausea, number of patients with treatment-related AE: 3
  Palmar–plantar erythrodysesthesia, % of patients with treatment-related AE: 38%
  Palmar–plantar erythrodysesthesia, number of patients with treatment-related AE: 5
  Paronychia, % of patients with treatment-related AE: 69%
  Paronychia, number of patients with treatment-related AE: 9
  Proteinuria, % of patients with treatment-related AE: 23%
  Proteinuria, number of patients with treatment-related AE: 3
  Rash, % of patients with treatment-related AE: 100%
  Rash, number of patients with treatment-related AE: 13
  Skin fissures, % of patients with treatment-related AE: 15%
  Skin fissures, number of patients with treatment-related AE: 2
  Stomatitis, % of patients with treatment-related AE: 61.5%
  Stomatitis, number of patients with treatment-related AE: 8
  Weight decreased, % of patients with treatment-related AE: 23%
  Weight decreased, number of patients with treatment-related AE: 3
[1]
  diarrhea, all-causality AE, number of patients: 12
  dry skin, all-causality AE, number of patients: 8
  paronychia, all-causality AE, number of patients: 9
  rash, all-causality AE, number of patients: 13
  stomatitis, all-causality AE, number of patients: 8
All cohorts, all cycles
  grade 4 or 5 treatment-related adverse events: ^aThere were no grade 4 or 5 treatment-related adverse events
All dose levels
  grade 4 AEs: No grade 4 AEs were reported
All in the 45 mg dosing cohort
  patients requiring temporary discontinuations due to TRAEs, number: five
One patient, 15 mg cohort, day 1 cycle 1, grade 1
  prolonged QTcF interval, change from baseline: 26 ms
overall
  treatment-related grade 3 AEs, number: eight
single-dose administration phase
  AEs observed in ≥1 patient during the single-dose administration phase: rash and diarrhea
